pEC50: −log10 of the molar value. Like-named read-outs stand apart in the source and are kept apart here.
Key:
parental HEK cells = test: HEK parental Agonist Counterscreen Assay (non-transfected cells); type: cell-based; settings: for Averaged Max % Response (±St. Dev.): activity relative to known control
Source text: The high control for the agonist counterscreen was Forskolin not acetylcholine.

GPR139 = biological target: T1, GPR139 (Homo sapiens, UniProt Q6DWJ6); test: GPR139 Agonist titration / agonist counterscreen assay (calcium detection, HEK-GPR139 cells); type: cell-based; set-up: expressed in transfected cells; host or cells: HEK Aequorin cells, Maxcyte transient transfection; settings: GPR139 Agonist Activity; for Averaged Max % Response (±St. Dev.): activity relative to known control; for pEC50: read-out: EC50
T1 sequence (Q6DWJ6 1-353): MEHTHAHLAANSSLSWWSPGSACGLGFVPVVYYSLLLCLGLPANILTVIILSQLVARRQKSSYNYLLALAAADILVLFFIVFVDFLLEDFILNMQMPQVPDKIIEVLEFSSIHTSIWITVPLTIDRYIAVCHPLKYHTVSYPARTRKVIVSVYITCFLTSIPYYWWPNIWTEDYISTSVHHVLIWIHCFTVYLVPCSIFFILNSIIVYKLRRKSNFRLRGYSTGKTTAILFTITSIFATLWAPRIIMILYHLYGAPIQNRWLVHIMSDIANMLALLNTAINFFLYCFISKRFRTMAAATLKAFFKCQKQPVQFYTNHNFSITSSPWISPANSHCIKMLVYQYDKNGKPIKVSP
Protocol: GPR activity was assessed using a calcium detection assay. […] Negative control samples were treated with DMSO. […] Intracellular calcium was measured using Calcium 5.

[1] = Homo sapiens, HEK293, HEK Agonist Activity section of Table 4 (parental HEK counterscreen)
[2] = values printed in E-notation without unit
[3] = Homo sapiens, HEK293, HEK Agonist Activity, parental non-transfected HEK cells

Row | SMILES | Lipophilic Efficiency (logD) (parental HEK cells; HEK Agonist Activity section) | Lipophilic Efficiency (logP) (parental HEK cells; HEK Agonist Activity section) | Averaged Max % Response (±St. Dev.) (parental HEK cells; HEK Agonist Activity section) | pEC50 (parental HEK cells; [1]) | Averaged Max % Response (±St. Dev.) (GPR139) | Lipophilic Efficiency (logD) (GPR139; based on logD) | Lipophilic Efficiency (logP) (GPR139; based on logP) | Hill Slope (GPR139; fitted dose-response curve) | Efficiency Ligand (GPR139; ligand efficiency) | pEC50 (GPR139; [2]) | Lipophilic Efficiency (logD) (parental HEK cells; HEK Agonist Activity) | Lipophilic Efficiency (logP) (parental HEK cells; HEK Agonist Activity) | Averaged Max % Response (±St. Dev.) (parental HEK cells; HEK Agonist Activity) | pEC50 (parental HEK cells; [3]) | also measured
1 | CC(C)(C)OC(=O)NNC(=O)COCc1ccc(Cl)c(Cl)c1 [SR-01000074687] | 1.33 | 1.32 | 17.98 ± 4.87% | < 4.81 | 90.02 ± 17.44% | 3.63 | 3.62 | 0.77 | 0.45 | 7.11 |  |  |  |  | 
2 | CC(NC(=O)CN1C(=O)c2cccc([N+](=O)[O-])c2C1=O)c1ccc(Cl)cc1Cl (stereo not shown) [SR-01000074712] |  |  |  |  | 109.67 ± 8.84% | 4.91 | 4.91 | 0.80 | 0.40 | 8.01 | 1.73 | 1.73 | 30.27 ± 2.23% | < 4.83 | 
3 | CC1(c2ccc3c(c2)OCCO3)NC(=O)C(CC(=O)NCC2CCCCC2)C1=O (stereo not shown) [SR-01000074761] | 3.15 | 3.15 | 13.40 ± 6.99% | < 4.81 | 95.96 ± 3.33% | 5.32 | 5.32 | 0.92 | 0.34 | 6.99 |  |  |  |  | 
4 | COc1ccc2c(CC(=O)NNC(=O)c3cc(-c4ccccc4)no3)coc2c1 [SR-01000074979] | 2.52 | 2.51 | −0.33 ± 8.51% | < 4.84 | 79.45 ± 3.43% |  |  |  |  |  |  |  |  |  | Efficiency Ligand (GPR139): 0.31; Hill Slope (GPR139): 0.80; Lipophilic Efficiency (logD) (GPR139): 4.03; Lipophilic Efficiency (logP) (GPR139): 4.03; pEC50 (GPR139; HEK-GPR139 cells): 6.36
5 | O=C(CN1C(=O)NC2(CCCc3ccccc32)C1=O)N1CCCCCC1 (stereo not shown) [SR-01000075116] | 2.72 | 2.72 | 4.31 ± 1.95% |  | 81.52 ± 3.66% | 4.72 | 4.72 | 0.99 | 0.37 | 6.85 |  |  |  |  | pEC50 (parental HEK cells; HEK Agonist Activity section of Table 4 (parental HEK counterscreen)): < 4.84
6 | O=C(CCc1nc2cccnc2n1Cc1cccs1)NCCc1cccs1 [SR-01000077903] | 1.29 | 1.29 | 1.27 ± 2.74% | < 4.85 | 105.59 ± 5.95% | 3.66 | 3.66 | 0.45 | 0.37 | 7.22 |  |  |  |  | 
7 | O=C(CCc1nc2cccnc2n1Cc1cccs1)NCCc1ccccc1 [SR-01000077904] |  |  |  |  | 79.43 ± 7.55% | 4.54 | 4.54 |  | 0.41 |  | 1.20 | 1.20 | −12.58 ± 9.87% | < 4.85 | 
8 | CCCn1c(CCC(=O)NCCc2ccc(OCC)cc2)nc2cccnc21 [SR-01000077930] |  |  |  |  | 102.55 ± 5.37% | 4.55 | 4.55 | 0.67 | 0.38 | 7.64 | 1.76 | 1.76 | 1.00 ± 2.79% | < 4.85 | 
9 | Cc1cc(CC(=O)N/C=C/c2cccc3ccccc23)n[nH]1 [SR-01000080408] | 4.10 | 2.51 | 71.97 ± 7.16% | 4.92 | 105.88 ± 16.21% | 6.30 | 4.72 | 0.34 | 0.45 |  |  |  |  |  | Hill Slope (parental HEK cells; HEK Agonist Activity section): 1.95

From patent US20250099420A1, “SMALL MOLECULE MODULATORS OF GPR139 COMPLEX” (University of Florida Research Foundation, Incorporated, priority 2022, published 2025)
